Test: Pharmacokinetic study for PTG-630 (IV and PO): plasma, whole blood, tissues, urine
Assay type: in vivo, Sprague Dawley rats
Experimental: The samples were analyzed in two batches with standards and QCs prepared on rat plasma and rat urine. Analyst® 1.6 (SCIEX) software was used for statistical analysis of bioanalytical data. […] Dose samples collected at 0.083 h-6 h postdose were diluted 4 times with SD rat plasma prior to plating. Twenty-four (24) hours plasma samples were assayed without dilution. […] Two sciatic nerve samples were excluded from analysis, due to the insufficient sample size. […] The 12 non-cannulated animals were arbitrarily assigned to groups upon arrival and housed together throughout the experiment. The animals were acclimated to their designated housing for at least 24 hours before the first day of dosing. […] Blood samples were collected via cannula from IV dosed rats or by cardiac stick from PO dosed rats at the specified time points for sampling pharmacokinetics. Blood was collected into K2EDTA tubes. Tubes were mixed gently after blood collection, chilled and centrifuged at 3000 rpm, 4° C. within 30 minutes upon collection. The samples were centrifuged at 4° C. and the resultant plasma separated. […] Urine from Group 1 was collected via polycarbonate tubes from rats placed in drug metabolism cages. Urine was maintained and room temperature through the collection period.

[1] = PTG-4997 in kidneys after PTG-630 PO

Work on `Cc1ncc(CO)c(-c2ncc[nH]2)c1O` [PTG-4997] yielded an MRT [1] of 11.6 h, a Tmax [1] of 6 h and a half-life [1] of 2.36 h. For the same molecule, the “PTG-4997 (metabolite) concentration” value (Table 2, for PTG-4997 (metabolite) after PTG-630 IV 5 mg/kg, plasma, 0.083 h postdose, individual animals) was “<BLQ”, the “PTG-4997 (metabolite) concentration” value (Table 2, for PTG-4997 (metabolite) after PTG-630 IV 5 mg/kg, plasma, 0.5 h postdose, individual animals, 5 mg/kg) was “<BLQ” and the “PTG-4997 (metabolite) concentration” value (Table 2, for PTG-4997 (metabolite) after PTG-630 IV 5 mg/kg, plasma, 1 h postdose, individual animals) was “<BLQ”. For the same molecule, the “PTG-4997 (metabolite) concentration” value (Table 2, for PTG-4997 (metabolite) after PTG-630 IV 5 mg/kg, plasma, 24 h postdose, individual animals) was “<BLQ”, the “PTG-4997 (metabolite) concentration” value (Table 2, for PTG-4997 (metabolite) after PTG-630 PO 100 mg/kg, brain, 0.5 h postdose, Mean) was “<BLQ” and the “PTG-4997 (metabolite) concentration” value (Table 2, for PTG-4997 (metabolite) after PTG-630 PO 100 mg/kg, brain, 0.5 h postdose, individual animals) was “<BLQ”. For the same molecule, the “PTG-4997 (metabolite) concentration” value (Table 2, for PTG-4997 (metabolite) after PTG-630 PO 100 mg/kg, brain, 1 h postdose, Mean) was “<BLQ”, the “PTG-4997 (metabolite) concentration” value (Table 2, for PTG-4997 (metabolite) after PTG-630 PO 100 mg/kg, brain, 1 h postdose, individual animals) was “<BLQ” and the “PTG-4997 (metabolite) concentration” value (Table 2, for PTG-4997 (metabolite) after PTG-630 PO 100 mg/kg, brain, 2 h postdose, Mean) was “<BLQ”. For the same molecule, the “PTG-4997 (metabolite) concentration” value (Table 2, for PTG-4997 (metabolite) after PTG-630 PO 100 mg/kg, brain, 2 h postdose, individual animals) was “<BLQ”, the “PTG-4997 (metabolite) concentration” value (Table 2, for PTG-4997 (metabolite) after PTG-630 PO 100 mg/kg, brain, 4 h postdose, Mean) was “<BLQ” and the “PTG-4997 (metabolite) concentration” value (Table 2, for PTG-4997 (metabolite) after PTG-630 PO 100 mg/kg, brain, 4 h postdose, individual animals) was “<BLQ”. For the same molecule, the “PTG-4997 (metabolite) concentration” value (Table 2, for PTG-4997 (metabolite) after PTG-630 PO 100 mg/kg, brain, 6 h postdose, Mean) was “<BLQ”, the “PTG-4997 (metabolite) concentration” value (Table 2, for PTG-4997 (metabolite) after PTG-630 PO 100 mg/kg, brain, 6 h postdose, individual animals) was “<BLQ” and the “PTG-4997 (metabolite) concentration” value (Table 2, for PTG-4997 (metabolite) after PTG-630 PO 100 mg/kg, brain, 24 h postdose, Mean) was “<BLQ”. For the same molecule, the “PTG-4997 (metabolite) concentration” value (Table 2, for PTG-4997 (metabolite) after PTG-630 PO 100 mg/kg, brain, 24 h postdose, individual animals) was “<BLQ”, the “PTG-4997 (metabolite) concentration” value (Table 2, for PTG-4997 (metabolite) after PTG-630 PO 100 mg/kg, kidney, 0.5 h postdose, Mean) was 86.5 ng/mL and the “PTG-4997 (metabolite) concentration” value (Table 2, for PTG-4997 (metabolite) after PTG-630 PO 100 mg/kg, kidney, 1 h postdose, Mean) was 0 ng/mL. The “PTG-4997 (metabolite) concentration” value (Table 2, for PTG-4997 (metabolite) after PTG-630 PO 100 mg/kg, kidney, 2 h postdose, Mean) was 81 ng/mL, the “PTG-4997 (metabolite) concentration” value (Table 2, for PTG-4997 (metabolite) after PTG-630 PO 100 mg/kg, kidney, 4 h postdose, Mean) was 128 ng/mL and the “PTG-4997 (metabolite) concentration” value (Table 2, for PTG-4997 (metabolite) after PTG-630 PO 100 mg/kg, kidney, 6 h postdose, Mean) was 182.5 ng/mL. For the same molecule, the “PTG-4997 (metabolite) concentration” value (Table 2, for PTG-4997 (metabolite) after PTG-630 PO 100 mg/kg, kidney, 24 h postdose, Mean) was 106 ng/mL, the “PTG-4997 (metabolite) concentration” value (Table 2, for PTG-4997 (metabolite) after PTG-630 PO 100 mg/kg, liver, 0.5 h postdose, Mean) was “<BLQ” and the “PTG-4997 (metabolite) concentration” value (Table 2, for PTG-4997 (metabolite) after PTG-630 PO 100 mg/kg, liver, 0.5 h postdose, individual animals) was “<BLQ”. The “PTG-4997 (metabolite) concentration” value (Table 2, for PTG-4997 (metabolite) after PTG-630 PO 100 mg/kg, liver, 1 h postdose, Mean) was “<BLQ”, the “PTG-4997 (metabolite) concentration” value (Table 2, for PTG-4997 (metabolite) after PTG-630 PO 100 mg/kg, liver, 1 h postdose, individual animals) was “<BLQ” and the “PTG-4997 (metabolite) concentration” value (Table 2, for PTG-4997 (metabolite) after PTG-630 PO 100 mg/kg, liver, 2 h postdose, Mean) was “<BLQ”. The “PTG-4997 (metabolite) concentration” value (Table 2, for PTG-4997 (metabolite) after PTG-630 PO 100 mg/kg, liver, 2 h postdose, individual animals) was “<BLQ”, the “PTG-4997 (metabolite) concentration” value (Table 2, for PTG-4997 (metabolite) after PTG-630 PO 100 mg/kg, liver, 4 h postdose, Mean) was “<BLQ” and the “PTG-4997 (metabolite) concentration” value (Table 2, for PTG-4997 (metabolite) after PTG-630 PO 100 mg/kg, liver, 4 h postdose, individual animals) was “<BLQ”. For the same molecule, the “PTG-4997 (metabolite) concentration” value (Table 2, for PTG-4997 (metabolite) after PTG-630 PO 100 mg/kg, liver, 6 h postdose, Mean) was “<BLQ”, the “PTG-4997 (metabolite) concentration” value (Table 2, for PTG-4997 (metabolite) after PTG-630 PO 100 mg/kg, liver, 6 h postdose, individual animals) was “<BLQ” and the “PTG-4997 (metabolite) concentration” value (Table 2, for PTG-4997 (metabolite) after PTG-630 PO 100 mg/kg, liver, 24 h postdose, Mean) was “<BLQ”. The “PTG-4997 (metabolite) concentration” value (Table 2, for PTG-4997 (metabolite) after PTG-630 PO 100 mg/kg, liver, 24 h postdose, individual animals) was “<BLQ”, the “PTG-4997 (metabolite) concentration” value (Table 2, for PTG-4997 (metabolite) after PTG-630 PO 100 mg/kg, muscle, 0.5 h postdose, Mean) was “<BLQ” and the “PTG-4997 (metabolite) concentration” value (Table 2, for PTG-4997 (metabolite) after PTG-630 PO 100 mg/kg, muscle, 0.5 h postdose, individual animals) was “<BLQ”. The “PTG-4997 (metabolite) concentration” value (Table 2, for PTG-4997 (metabolite) after PTG-630 PO 100 mg/kg, muscle, 1 h postdose, Mean) was “<BLQ” and the “PTG-4997 (metabolite) concentration” value (Table 2, for PTG-4997 (metabolite) after PTG-630 PO 100 mg/kg, muscle, 1 h postdose, individual animals) was “<BLQ”.

From patent US12139472B2, “Inhibitors of advanced glycation end products” (priority 2019, dated 2024)
